Reference: patent US20080153921A1, “Lycopene Formulations For the Treatment of Atherosclerotic Conditions” (CAMBRIDGE, priority 2005, published 2008)

Columns and labels:
lipid oxidising abzymes = test: ELISA based abzyme assay; assay type: biochemical, human; conditions: in vitro
Description: ELISA assays were performed using Medac materials and reagents, which were used in accordance with the manufacturers instructions.
Briefly, serum samples from patients were treated as described above. 50 μl of sample diluent was pipetted into microtitre well A1 as blank, and 50 μl of the negative control, Positive Control and the diluted patients' samples were pipetted into other microtitre wells. The microplate wells were incubated for 60 min (±5 min) at 37 °C (±1° C.) in a humid chamber and then washed three times with 200 μl wash buffer per well. 50 μl of Conjugate was then added to each well and the microplate wells incubated again for 60 min (±5 min) at 37 °C (±1° C.) in a humid chamber and then washed. 50 μl of TMB-Substrate, was added to each well and the microplate wells incubated for 30 min (±2 min) at 37 °C (±1° C.) in a humid chamber. The reaction was stopped by adding 100 μl of Stop Solution, to each well.
Photometric reading was performed at 450 nm (ref. 620-650 nm) within 15 min after adding the Stop Solution.
To calculate the results, the OD value of the blank (well A1) was subtracted from all other OD values. Preferably, the OD value of the blank was <0.150, the mean OD value of the Negative Control was <0.100 and the OD value of the Positive Control was >0.800. Cut-off mean OD value of the Negative Control+0.380. Grey zone Cut-off±10%

[1] = test system: lipid oxidising abzymes (atheroma extracted IgG); test: Testing of anti-abzyme activity (lipid oxidation, MDA/thiobarbituric acid assay); assay type: biochemical, human
Description: Antibodies were extracted from advanced atherosclerotic lesions of human aorta retrieved from two male patients […], during bypass surgery of an abdominal aortal stenosis at the Centre of Cardio-Vascular Surgery of the Medical University of Rostov-na-Donu, Russian Federation. After recovery these samples were immediately put in 30% w/v solution of NaCl and stored at 0-4° C. for 1 month prior to examination. […]
The antibodies were extracted and analysed separately from the lesions of the two pieces of the abdominal aorta obtained from the […] different patients. […]
Samples of the human serum were incubated with different concentrations of lycopene, lycopene/lactoprotein conjugate or alone (control samples) with the presence of atheroma extracted IgG for 16 hours at 37° C. at pH 5.6. The level of lipid peroxidation was assessed as a level of MDA concentration which was measured by spectrophotometric method [Draper, H. H. et al Free Radic. […] Briefly, the level of abzymes in a sample was determined as follows: Samples of sera were diluted 1:1 by 0.05M acetate buffer pH 4.0 to make the final pH of these samples between 5.6-5.8. […] The supernatants were collected and their absorption measured at λ 525 nm to determine the concentration of malondialdehydes (MDA), which are products of lipid peroxidation.

Q: What does the source list for `CC(C)=CCC/C(C)=C/C=C/C(C)=C/C=C/C(C)=C/C=C/C=C(C)/C=C/C=C(C)/C=C/C=C(\C)CCC=C(C)C` [Lycopene]?
A: abzyme inhibition activity (lipid oxidising abzymes): ineffective; Maximum inhibition in vitro ([1]; abzyme inhibition): 0%; abzyme inhibition activity ([1]; lipid oxidation assay, in vitro): ineffective
